Columns and labels:
TGFβ Signaling Pathways = test: Western blot analysis for phospho- and nonphospho-Smad2 and Smad3; type: cell-based, human; conditions: 0.5 μM
Protocol: Western blot analysis for phospho- and nonphospho-Smad2 and Smad3: Western blot analysis is performed as described above for MAPK analysis and probed with a primary antibody for Smad2, phospho-Smad2 (Thr/Tyr), Smad3, or phospho-Smad3 (Thr/Tyr) (Cell Signaling Technology, Danvers, Mass.). For comparison, the ratios of phosphorylated Smad2 and Smad3 to nonphosphorylated Smad2 and Smad3, respectively, are calculated from densitometric data.

HSCs = test: Type 1 collagen assay (ELISA of culture media); type: cell-based; conditions: rat HSCs
Protocol: (§1) A. In vitro Cell culture: HSCs are isolated from the liver of male Wistar rats by sequential in situ perfusion with collagenase and digestion with pronase, followed by centrifugation in a double-layered (17%/11.5%) metrizamide solution (Sigma. Chemical, St. Louis, Mo.), as described in Kato, et al, J. Hepatol (1999) 31:91-99. HSCs are cultured in Dulbecco's modified Eagle's medium (DMEM) with 10% fetal calf serum (FCS). Experiments are performed on cells between the third and fourth serial passages. To measure […] matrix metalloproteinase (MMP-1) and tissue inhibitor of matrix metalloproteinase (TIMP-1), TWNT-4 cells which is a human cell line derived from HSCs as produced according to Shibata, et al, Cell Transplant (2003) 12:499-507 is used for evaluating the effects of Fasudil on MMP-1 and TIMP-1. TWNT-4 cells are cultured in DMEM with 10% FCS as reported previously (Id). NIM811 (Novartis Pharma AG, Basel, Switzerland) is dissolved in DMEM and added to cultures. Cell viability of HSCs is more than 90% under serum-free conditions for 24 h in the presence of 2 μM NIM811.
Type 1 collagen assay: Cultured HSCs are incubated in serum-free medium in the presence or absence of NIM811 for 24 h. Type I collagen is determined in culture media by ELISA as described in Iwamoto, et al, J. Hepatol (2000) 32:762-770. […]

cyclophilin A = cyclophilin A (Homo sapiens, UniProt P62937); conditions: Waldmeier et al, Mol Pharmacol (2002); cited from earlier work
Cell viability of HSCs = type: cell-based; conditions: male, Wistar, rat, primary hepatic stellate cells (HSCs), 2 μM NIM811, serum-free conditions
Protocol: as §1

TWNT-4 cells = test: MMP-1, TIMP-1, and collagenase assay; type: cell-based, human
Protocol: as §1
MMP-1, TIMP-1, and collagenase assay: Cultured TWNT-4 cells are incubated in serum-free medium in the presence or absence of NIM811 for 24 h. MMP-1 and TIMP-1 production are determined in culture media by ELISA with a Biotrak ELISA system for human MMP-1 (Amersham Biosciences, Piscataway, N.J., USA) and an hTIMP-1 kit (Daiichi Fine Chemical Co. Ltd., Toyama, Japan), respectively following procedures described in Fukushima, et al, Liver Int (2005) 25:829-838. Active MMP-1 and pro-MMP-1 in culture media are determined with a MMP-1 Biotrak Activity Assay System (Amersham).

[1] = tested on: cultured mouse hepatocytes; conditions: Kon et al, Hepatology (2004); cited from earlier work

cyclophilin A, sequence (P62937 whole entry, species assumed): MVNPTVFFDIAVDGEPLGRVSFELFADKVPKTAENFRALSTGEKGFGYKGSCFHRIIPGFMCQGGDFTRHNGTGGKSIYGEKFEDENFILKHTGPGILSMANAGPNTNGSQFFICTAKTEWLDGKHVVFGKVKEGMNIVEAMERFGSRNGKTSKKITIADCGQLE

SMILES: C/C=C/C[C@@H](C)[C@@H](O)[C@H]1C(=O)N[C@@H](CC)C(=O)N(C)CC(=O)N(C)[C@@H]([C@@H](C)CC)C(=O)N[C@@H](C(C)C)C(=O)N(C)[C@@H](CC(C)C)C(=O)N[C@@H](C)C(=O)N[C@H](C)C(=O)N(C)[C@@H](CC(C)C)C(=O)N(C)[C@@H](CC(C)C)C(=O)N(C)[C@@H](C(C)C)C(=O)N1C [NIM811]
- suppression of phosphorylation of Smad2 (TGFβ Signaling Pathways): ~70%
- suppression of phosphorylation of Smad3 (TGFβ Signaling Pathways): ~60%
- reduction of collagen accumulation (HSCs; 0.5 μM): approximately 50%
- suppression of collagen accumulation (HSCs; increasing concentrations, 24 h): concentration-dependent suppression of collagen accumulation
- binding to cyclophilin A (cyclophilin A): does not bind to cyclophilin A
- viability at 24 h, 2 µM (Cell viability of HSCs): > 90%
- increase in collagenase activity (active MMP-1) (TWNT-4 cells; 0.5 μM): roughly 2 fold
- TIMP-1 production (TWNT-4 cells; 2.0 μM): does not significantly reduce TIMP-1 production
- collagenase activity (active MMP-1) and pro-MMP-1 levels (TWNT-4 cells; increasing concentrations): concentration-dependent increase
- acetaminophen-induced necrosis and apoptosis [1]: prevented acetaminophen-induced necrosis and apoptosis

Source: patent US20100130408A1, “USE OF MODIFIED CYCLOSPORINS” (priority 2006, published 2010)
